Measurements taken from patent publication US20160082036A1, “HYDROXYALKYL STARCH FOR THE TREATMENT OF CANCERS BY REDUCTION OF TUMOR GROWTH RATES” (Fresenius Kabi Deutschland GmbH, priority 2012, published 2016).

Experiments:
[1] = test system: human breast cell carcinoma line MT-3; test: Example 1: MT-3 xenograft tumor growth after single i.v. injection; format: in vivo
Description: Summary: Mice were either treated with a single i.v. injection of docetaxel (Taxotere®) at a dose of 25 mg/kg or with the plasma expander Voluven® (20 ml/kg) or with “HES 100/1.0” (approx. 740 mg/kg) dissolved in saline to determine tumor growth and body weight over the course of the experiment.
Docetaxel (available under the name Taxotere®) was obtained from Sanofi-Aventis Deutschland GmbH, (Lot CHB D9C895; Berlin, Germany) and was stored in the dark at −20° C. until use. […] “HES 100/1.0” (as specified in table 2 above) was dissolved in saline.
The final solution of docetaxel was prepared immediately before injection by mixing an appropriate volume of the original stock solution provided by Sanofi (20 mg/ml) with saline (0.9% NaCl, B. Braun Melsungen AG, Melsungen, Germany) as indicated in table 4 below. Saline was mixed with absolute ethanol to obtain an approx. 6.25% solution, the original vehicle of Taxotere®. Voluven® was used in the original formulation described above.
Adult female NMRI:nu/nu mice (TACONIC Europe, Lille Skensved, Denmark) bred in the own (EPO) colony were used throughout the study.
The MT-3 cell line was used for subcutaneous (s.c.) xenotransplantation in immune deficient female NMRI:nu/nu mice. […]
On study day 0 each 5×10^6 tumor cells were transplanted s.c. into the flank of each mouse. The animals were monitored for tumor growth and when tumors were palpable, generally between day 7 and day 10 after transplantation, mice were randomised into the treatment groups. […]
Individual tumor diameters were measured two times weekly with a calliper. Tumor volumes were calculated according to V=(length×(width)^2)/2. […] At each measurement day the median and mean tumor volumes per group and also the treated to control (T/C RTV) values in percent were calculated. […]

[2] = design: species or system NMRI:nu/nu mice; details: mouse, in vivo
Description: Hydroxyethyl starch compounds were obtained from Fresenius Kabi Deutschland GmbH on Dec. 7, 2012 and were stored at room temperature until use. The compounds each were dissolved in saline to obtain 10% w/v solutions. The application was 400 μl/20 g mouse body weight for saline and HES solutions, while Docetaxel was given in a volume of 10 ml/kg as slow bolus. The route of administration was intravenously for all mice.
Adult female NMRI:nu/nu mice (TACONIC Europe, Lille Skensved, Denmark) bred in the own (EPO) colony were used throughout the study. At the start of experiment they were 6-8 weeks of age.
In study 3 mice were sacrificed when the tumor size reached more than 1.5 cm^3, or the tumors ulcereted. Study 3 was finished when the mean TV was in most groups larger than 1.0 cm^3.
On the day of necropsy mice were sacrificed by cervical dislocation and inspected for gross organ changes.

[3] = single i.v. dose at day 7 after inoculation, MT-3 s.c. in NMRI:nu/nu mice, in cm3 (unit assumed)

Question: Which results are given for `CC(=O)O[C@@]12CO[C@@H]1C[C@H](O)[C@@]1(C)C(=O)[C@H](O)C3=C(C)[C@@H](OC(=O)[C@H](O)[C@@H](NC(=O)OC(C)(C)C)c4ccccc4)C[C@@](O)([C@@H](OC(=O)c4ccccc4)[C@H]21)C3(C)C` [Docetaxel]?
Answer: Tumor volume (mean) at day 34 [1, 3]: 0.930 ± 0.395; Tumor volume (mean) nadir [1, 3]: 0.072 ± 0.047; inhibition of tumor growth (in words) ([1]; single i.v. treatment, compared to control group, FIG. 4): significant inhibition of tumor growth; body weight (in words) [2]: moderate body weight loss; general toxicity, clinical sign (in words) ([2]; iv): apathy
